# Laboratory results: paper PMC3172300, “Modulation of Catalytic Activity in Multi-Domain Protein Tyrosine Phosphatases” (PLoS ONE, 2011)
# Where two headings read alike, the source gives them in different places. Square brackets hold non-standard residues; d marks the D form. Ends that are not written are not given here. Peptide text beside a SMILES is read from it. pY = N[C@@H](Cc1ccc(OP(=O)(O)O)cc1)C(=O)O
# Legend:
# DLAR D1 [1] = target: T1, DLAR D1 (Drosophila melanogaster, UniProt P16621); assay: Dephosphorylation of phosphotyrosine peptides (malachite green), DLAR D1; type: biochemical; conditions: for Vmax / Kcat / Kcat/Km / Km: 0.01 µM protein; for Vmax: 25 mM citrate buffer pH 6.0, 100 mM NaCl, 2 mM DTT, 15 min at 25°C, Biomol Green, 650 nm, Michaelis-Menten fit; for Kcat / Kcat/Km / Km: 25 mM citrate pH 6.0, 15 min at 25°C, malachite green; for peptide preference: order of peptide substrates, DLAR D1 domain
# T1 construct: DLAR 1448-1746; His tag (pET-15b or pET-22b); made in house; host or cells: E. coli BL21(DE3)
# T1 sequence (P16621 1448-1746): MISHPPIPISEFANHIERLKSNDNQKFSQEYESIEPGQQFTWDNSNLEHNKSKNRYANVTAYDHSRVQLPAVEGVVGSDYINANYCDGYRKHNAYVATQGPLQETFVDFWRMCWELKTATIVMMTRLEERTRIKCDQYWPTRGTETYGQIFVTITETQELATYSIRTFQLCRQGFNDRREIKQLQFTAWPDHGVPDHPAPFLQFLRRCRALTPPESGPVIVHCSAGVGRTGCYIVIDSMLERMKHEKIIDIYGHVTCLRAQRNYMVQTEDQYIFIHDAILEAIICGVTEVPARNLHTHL
# From the text: (§1) Substrates of PTPs characterized thus far include the activation loop segments of various kinases and regulatory loops of other signaling proteins. Suitably designed peptide substrates mimic the physiologically relevant substrates of PTPs. In the present study, peptide substrates were designed for DLAR for which more information was available on its interacting partners. […] The five peptides were chosen based on their distinct charge distributions around the central phosphotyrosine residue. The phosphorylated as well as non-phosphorylated peptides were obtained from GL Bioscience, China. The peptides were >95% pure and were used after a single round of desalting using a Sephadex G25 column (GE Healthcare). The concentration of the peptide samples for biochemical studies was ascertained by UV absorption at 268 nm for the pY residue.
# (§2) Phosphatase activity of the recombinant PTP domains was determined by using para-Nitrophenylphosphate (pNPP), a small molecule generic substrate, as well as phosphotyrosine containing peptides. The pNPP assay was performed as reported previously, with a modification in the buffer composition (25 mM Citrate, Glycine and HEPES (CGH), pH 6.5, 100 mM NaCl and 2 mM DTT). Phosphatase activity with the phosphotyrosine peptides was ascertained by the malachite green reaction as described for PTPs previously. Briefly, the reaction mixture comprised of 0.01 µM protein incubated with increasing concentrations of different peptides in 25 mM citrate buffer pH 6.0, 100 mM NaCl and 2 mM DTT for 15 min at 25°C. The reaction was stopped by the addition of the Biomol Green reagent (Enzo Life Sciences) and the colour developed after 20 min was quantified at 650 nm. For all the assays, kinetic constants for the steady state catalysis were obtained by fitting the reaction curves to the Michaelis-Menten equation using the nonlinear regression module of Sigma plot software (Systat Software, Inc.).
# PTP99A D1D2 = target: T2, PTP99A D1D2 (Drosophila melanogaster, UniProt P35832); assay: Dephosphorylation of phosphotyrosine peptides (malachite green), PTP99A D1D2; conditions: for Vmax / Kcat / Kcat/Km / Km: 0.01 µM protein; for Vmax: 25 mM citrate buffer pH 6.0, 100 mM NaCl, 2 mM DTT, 15 min at 25°C, Biomol Green, 650 nm, Michaelis-Menten fit; for Kcat / Kcat/Km / Km: 25 mM citrate pH 6.0, 15 min at 25°C, malachite green; for substrate preference: order of peptide substrates, PTP99A D1D2
# T2 sequence (P35832 450-1050): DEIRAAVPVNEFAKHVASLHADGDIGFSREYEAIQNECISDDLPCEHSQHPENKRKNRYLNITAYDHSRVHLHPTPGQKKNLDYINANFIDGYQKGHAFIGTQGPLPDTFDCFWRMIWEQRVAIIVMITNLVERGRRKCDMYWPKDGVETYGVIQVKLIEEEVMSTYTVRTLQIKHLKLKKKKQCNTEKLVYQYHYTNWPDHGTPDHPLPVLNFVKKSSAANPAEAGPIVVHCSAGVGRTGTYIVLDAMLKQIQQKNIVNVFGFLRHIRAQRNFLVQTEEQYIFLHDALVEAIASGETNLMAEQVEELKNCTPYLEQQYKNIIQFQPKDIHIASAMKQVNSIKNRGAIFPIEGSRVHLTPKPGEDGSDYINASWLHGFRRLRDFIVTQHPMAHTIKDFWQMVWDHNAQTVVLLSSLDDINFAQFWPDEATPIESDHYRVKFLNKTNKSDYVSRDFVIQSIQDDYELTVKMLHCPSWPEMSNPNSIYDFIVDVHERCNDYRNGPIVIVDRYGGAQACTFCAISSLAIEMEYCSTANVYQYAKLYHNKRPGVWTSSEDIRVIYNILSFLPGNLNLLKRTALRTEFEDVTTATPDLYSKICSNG
# From the text: as §1, §2
# DLAR D1 [2] = target: T1, DLAR D1; assay: Surface Plasmon Resonance peptide binding, DLAR D1; conditions: column first binding site, single-site model
# Method: The binding of phosphotyrosine peptides to the PTP domains was studied by Surface Plasmon Resonance on a Biacore-2000 instrument (BIAcore, AB). All experiments were conducted at 25°C. DLAR PTP domains were immobilized onto carboxylated dextran CM5 chips (BIAcore AB) using the standard amine coupling procedure as recommended by the manufacturer. Binding and kinetic assays were performed in 10 mM HEPES, pH 8.0, 150 mM NaCl, 10 mM DTT and 3 mM EDTA at a flow rate of 5 µL/min. The peptides were used at concentrations ranging from 50–700 µM. Dissociation was initiated by replacing the analyte with buffer. The association and dissociation curves were monitored for 600 sec. Sensograms were analyzed with BIA-evaluation software version 2 (BIAcore AB). Sensograms for DLAR D1D2, DLAR D1HSSD2 and DLAR D1D2HSS were fitted to two-site binding equations. DLAR D1 and DLAR D2 sensograms were fitted using a single-site binding model.
Compound,Vmax (DLAR D1 [1]) [µmol/min/mg],Kcat (DLAR D1 [1]) [s⁻¹],Kcat/Km (DLAR D1 [1]),Km (DLAR D1 [1]; read-out: Km) [µM],peptide preference (DLAR D1 [1]),Vmax (PTP99A D1D2) [µmol/min/mg],Kcat (PTP99A D1D2) [s⁻¹],Kcat/Km (PTP99A D1D2),Km (PTP99A D1D2) [µM],substrate preference (PTP99A D1D2),Km (DLAR D1 [1]) [µM],"kon (DLAR D1 [2]; SPR Biacore-2000, 25°C, 10 mM HEPES pH 8.0, 150 mM NaCl, 10 mM DTT, 3 mM EDTA, peptides 50–700 µM, read-out: ka) [M⁻¹ s⁻¹]","Kd (DLAR D1 [2]; SPR, 25°C, pH 8.0) [µM]"
"CDDS[pY]FGNKC (cysteine pairing not given here) [Myospheroid peptide, phosphotyrosine peptide CDDSpYFGNKC from PeptideMine server, obtained from GL Bioscience, >95% pure]",29.58 ± 0.84,23.66 ± 0.67,30.14 ± 0.06 x 10^4 sec^-1M^-1,78.5 ± 6.67,Insulin receptor peptide>Cuticle peptide>Nervous fingers peptide>Myospheroid peptide>Abelson peptide,1.09 ± 0.03,1.35 ± 0.03,44.1 ± 1.22 x 10^4 sec^-1M^-1,3.06 ± 0.36,Insulin Receptor peptide>Cuticle peptide>Myospheroid>Abelson peptide>Nervous fingers peptide,,,
CC(C)C[C@H](NC(=O)[C@H](C)NC(=O)CNC(=O)[C@H](Cc1ccc(OP(=O)(O)O)cc1)NC(=O)[C@H](CC(=O)O)NC(=O)[C@@H]1CCCN1C(=O)[C@H](CCC(=O)O)NC(=O)[C@H](C)NC(=O)[C@@H](N)[C@@H](C)O)C(=O)N[C@@H](Cc1ccc(O)cc1)C(=O)N[C@@H](CCC(=O)O)C(=O)O [Cuticle peptide] (H-TAEPD[pY]GALYE-OH),,,,,,,,,,,56.5 ± 4.64,18.6 ± 1.46,94.6 ± 0.33
"RDDT[pY]TAHAG [Abelson peptide, phosphotyrosine peptide RDDTpYTAHAG from PeptideMine server, obtained from GL Bioscience, >95% pure]",4.95 ± 0.59,3.96 ± 0.68,21.77 ± 0.32 x 10^4 sec^-1M^-1,18.2 ± 8.98,Insulin receptor peptide>Cuticle peptide>Nervous fingers peptide>Myospheroid peptide>Abelson peptide,2.59 ± 0.07,3.21 ± 0.08,19.97 ± 0.15 x 10^4 sec^-1M^-1,16.3 ± 1.55,Insulin Receptor peptide>Cuticle peptide>Myospheroid>Abelson peptide>Nervous fingers peptide,,,
"VIGD[pY]VCRLCK (cysteine pairing not given here) [Nervous Fingers peptide, phosphotyrosine peptide VIGDpYVCRLCK from PeptideMine server, obtained from GL Bioscience, >95% pure]",37.5 ± 1.4,30 ± 1.12,78.51 ± 0.09 x 10^4 sec^-1M^-1,38.2 ± 5.05,Insulin receptor peptide>Cuticle peptide>Nervous fingers peptide>Myospheroid peptide>Abelson peptide,8.89 ± 0.38,11.01 ± 0.46,6.12 ± 0.12 x 10^4 sec^-1M^-1,180 ± 15,Insulin Receptor peptide>Cuticle peptide>Myospheroid>Abelson peptide>Nervous fingers peptide,,,
